For experiment [1], the target named is T1, HCV polymerase (NS5B) type 1a (Hepatitis C virus genotype 1a, UniProt P26664).
T1 construct: made in house; host or cells: Escherichia coli (by the 'similar method' of the 1b enzyme)
In words: Assay of enzyme (HCV polymerase) inhibitory activity, type 1a enzyme. The settings on record: HCV polymerase inhibitory activity IC50, 1a, type 1a enzyme. Format: biochemical, HCV type 1a (cloned from the blood of patients). The method in brief: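 Patient-derived type 1a NS5B (C-terminal 47-aa deletion, His-tagged, E. coli-expressed) at 1.5 μg/ml was reacted with 5 μg/ml 3′UTR-containing substrate RNA, 50 μM ATP/GTP/CTP, 2 μM UTP plus [3H]UTP, pH 7.5, 25° C for 60 min. TCA-precipitated RNA radioactivity was counted; IC50 from ± compound.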

Experiment [2] deals with T2, HCV polymerase (NS5B) type 1b (Hepatitis C virus genotype 1b, UniProt P26663).
T2 construct: a region encoding NS5B (J Virol 1991 March, 65(3), 1105-13, 544 amino acids after deletion of 47 amino acids on the C-terminal); 6xHis (C); made in house; host or cells: Escherichia coli
In words: Assay of enzyme (HCV polymerase) inhibitory activity, type 1b enzyme. Format: biochemical, HCV BK strain (type 1b). The following applies: HCV polymerase inhibitory activity IC50, 1b, type 1b enzyme. Summed up: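 NS5B from HCV BK strain (type 1b), C-terminal 47 aa deleted, C-terminal His6-tagged, E. coli-expressed, 0.5 μg/ml, with ~450 nt substrate RNA carrying the 3′ UTR (polyU, 3′X) at 5 μg/ml. Incubation 60 min at 25 °C with 50 μM ATP/GTP/CTP, 2 μM UTP plus [3H]UTP, pH 7.5 Tris.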

A word on the IC50: it is the midpoint of a concentration-inhibition curve. A high value points to weaker potency in that assay. As to `O=C(NCc1ccc(OC(F)(F)F)cc1)[C@H]1CN(c2cnc3cncnc3n2)CCN1S(=O)(=O)c1ccc(Cl)s1` [Example 792, (R)-1-(5-chloro-thiophene-2-sulfonyl)-4-pteridin-7-yl-piperazine-2-carboxylic acid 4-trifluoromethoxy-benzylamide], the IC50 in experiment [1] and in experiment [2] was < 100 nM in each case.

`O=C(NCc1ccc(OC(F)(F)F)cc1)[C@H]1CN(c2ccc3ncccc3n2)CCN1S(=O)(=O)c1ccc(OC(F)(F)F)cc1` [Example 793, (R)-4-[1,5]naphthyridin-2-yl-1-(4-trifluoromethoxy-benzenesulfonyl)-piperazine-2-carboxylic acid 4-trifluoromethoxy-benzylamide]: the half-maximal inhibitory concentration (IC50) in experiment [1] and in experiment [2] was < 100 nM each time.

Regarding `O=C(NCc1ccc(OC(F)(F)F)cc1)[C@H]1CN(c2nc3nccnc3s2)CCN1S(=O)(=O)c1ccc(OC(F)(F)F)cc1` [Example 794, (R)-4-thiazolo[4,5-b]pyrazin-2-yl-1-(4-trifluoromethoxy-benzenesulfonyl)-piperazine-2-carboxylic acid 4-trifluoromethoxy-benzylamide], the IC50 in experiment [1] and in experiment [2] was < 100 nM each time.

In the case of `O=C(NCc1c(F)c(F)c(C(F)(F)F)c(F)c1F)[C@H]1CN(c2cnc3cncnc3n2)CCN1S(=O)(=O)c1ccc(OC(F)(F)F)cc1` [Example 795, (R)-4-pteridin-7-yl-1-(4-trifluoromethoxy-benzenesulfonyl)-piperazine-2-carboxylic acid 2,3,5,6-tetrafluoro-4-trifluoromethyl-benzylamide], the concentration for half-maximal inhibition (IC50) in experiment [1] and in experiment [2] was < 100 nM throughout.

`CCc1ccc(S(=O)(=O)N2CCN(c3cnc(CO)cn3)C[C@@H]2C(=O)NCc2ccc(OC(F)(F)F)cc2)cc1` [Example 796, (R)-4-(4-ethyl-benzenesulfonyl)-5′-hydroxymethyl-3,4,5,6-tetrahydro-2H-[1,2′]bipyrazinyl-3-carboxylic acid 4-trifluoromethoxy-benzylamide]: the concentration for half-maximal inhibition (IC50) in experiment [1] and in experiment [2] was < 100 nM in each case.

For the compound `O=C(NCc1c(Cl)cc(Cl)cc1Cl)[C@H]1CN(c2cnc3cncnc3n2)CCN1S(=O)(=O)c1ccc(OC(F)(F)F)cc1` [Example 797, (R)-4-pteridin-7-yl-1-(4-trifluoromethoxy-benzenesulfonyl)-piperazine-2-carboxylic acid 2,4,6-trichloro-benzylamide], the IC50 in experiment [1] and in experiment [2] was < 100 nM throughout.

On to `O=C(NCc1ccc(OC(F)(F)F)cc1)[C@H]1CN(c2cnc3cnc(C(F)(F)F)nc3n2)CCN1S(=O)(=O)c1ccc(OC(F)(F)F)cc1` [Example 798, (R)-1-(4-trifluoromethoxy-benzenesulfonyl)-4-(2-trifluoromethyl-pteridin-7-yl)-piperazine-2-carboxylic acid 4-trifluoromethoxy-benzylamide], for which the IC50 in experiment [1] was 100 to 1000 nM; in experiment [2], < 100 nM.

On to `O=C(NCc1ccc(OC(F)(F)F)cc1)[C@H]1CN(c2cnc3cncc(Br)c3n2)CCN1S(=O)(=O)c1ccc(OC(F)(F)F)cc1` [Example 799, (R)-4-(8-bromo-pyrido[3,4-b]pyrazin-2-yl)-1-(4-trifluoromethoxy-benzenesulfonyl)-piperazine-2-carboxylic acid 4-trifluoromethoxy-benzylamide], for which the IC50 in experiment [1] and in experiment [2] was < 100 nM in each case.

Regarding `O=C(NCc1ccc(OC(F)(F)F)cc1)[C@H]1CN(c2nc3nc(Cl)nc(Cl)c3s2)CCN1S(=O)(=O)c1ccc(OC(F)(F)F)cc1` [Example 800, (R)-4-(5,7-dichloro-thiazolo[4,5-d]pyrimidin-2-yl)-1-(4-trifluoromethoxy-benzenesulfonyl)-piperazine-2-carboxylic acid 4-trifluoromethoxy-benzylamide], the IC50 in experiment [1] and in experiment [2] was < 100 nM in each case.

Source of the values: patent US8017612B2, “Piperazine compound and use thereof as a HCV polymerase inhibitor” (priority 2006, dated 2011).
